Laboratory results as given in PubChem BioAssay (NCI).
“And” between values parts separate entries of the source, which are not always exact repeats. Equal values may be shown once.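 Five concentrations, 48 hours, 96-well plates. GI50 = concentration required for 50% inhibition of growth. TGI: total growth inhibition.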

Columns and labels:
Experiment in all cases: NCI tumour cell line growth inhibition, 48 h
T-47D breast = tested on: T-47D breast
MDA-MB-231 breast = tested on: MDA-MB-231 breast
HOP-62 NSCLC = tested on: HOP-62 NSCLC
DU-145 prostate = tested on: DU-145 prostate
IGROV1 ovarian = tested on: IGROV1 ovarian
SF-539 CNS = tested on: SF-539 CNS
HL-60(TB) leukemia = tested on: HL-60(TB) leukemia
MOLT-4 leukemia = tested on: MOLT-4 leukemia
UACC-62 melanoma = tested on: UACC-62 melanoma
SW-620 colon = tested on: SW-620 colon

| Compound | GI50 (T-47D breast) [µM] | TGI (T-47D breast) [µM] | GI50 (MDA-MB-231 breast) [µM] | TGI (MDA-MB-231 breast) [µM] | GI50 (HOP-62 NSCLC) [µM] | TGI (HOP-62 NSCLC) | GI50 (DU-145 prostate) [µM] | TGI (DU-145 prostate) [µM] | GI50 (IGROV1 ovarian) [µM] | TGI (IGROV1 ovarian) | GI50 (SF-539 CNS) [µM] | TGI (SF-539 CNS) | GI50 (HL-60(TB) leukemia) [µM] | TGI (HL-60(TB) leukemia) | GI50 (MOLT-4 leukemia) [µM] | TGI (MOLT-4 leukemia) | GI50 (UACC-62 melanoma) [µM] | TGI (UACC-62 melanoma) [µM] | GI50 (SW-620 colon) [µM] | TGI (SW-620 colon) |
| --- | --- | --- | --- | --- | --- | --- | --- | --- | --- | --- | --- | --- | --- | --- | --- | --- | --- | --- | --- | --- |
| COc1cccc(N2CCN(CC(=O)N3CCN(c4nnc(-c5ccc(Cl)cc5)c(-c5ccc(Cl)cc5)n4)CC3)CC2)c1 | 3.73 | 47.6 | 34.2 | > 100 | 32.1 | > 100 µM | > 100 | > 100 | 11.1 | 84.7 µM | 11.5 | 90.7 µM | 3.84 | > 100 µM | 3.1 | > 100 µM | 31.3 | > 100 | 64.9 | > 100 µM |
| CSC(=Nc1nnc(-c2ccc([N+](=O)[O-])cc2)s1)SC |  | > 100 |  | > 100 |  | 53.3 µM |  | > 100 |  | > 91.6 µM |  | 44.5 µM |  | > 100 µM |  | > 100 µM |  | > 76.5 |  | > 100 µM |
| CN(/N=C/c1cccc2cccnc12)c1ccc([N+](=O)[O-])cc1[N+](=O)[O-] |  | 85.4 |  | 56.8 |  | 22.9 µM |  | > 100 |  | 70.8 µM |  | 32.1 µM |  | > 68.1 µM |  | > 100 µM |  | 63.1 |  | > 100 µM |
| CCN1C(=O)N(CC)C2C1NN=c1s/c(=C\c3cccc(F)c3)c(=O)n12 (stereo not drawn) | 17.4 | > 100 | 0.405 | > 100 | 0.598 | > 100 µM | 0.389 | > 100 | 0.233 | > 100 µM | 0.0804 | 1.05 µM | 0.0582 | 0.46 µM | 0.327 | > 100 µM | 0.0539 | > 100 | 0.0845 | > 100 µM |
| COC(=O)C1CC23CCCN4CCC5(c6ccccc6N(C=O)C15CC2)C43 (stereo not drawn) |  | > 100 |  | > 100 |  | > 100 µM |  | > 100 |  | > 100 µM |  | > 100 µM |  | > 100 µM |  | > 100 µM |  | > 100 |  | > 100 µM |
| O=C(Oc1cccc(F)c1OC(=O)c1cccc(O)c1)c1cccc(O)c1 | 23.1 | 79.1 | > 100 | > 100 | 50.7 | > 100 µM | 44.7 | > 100 | 7.47 | > 100 µM | 16.9 | > 100 µM | 4.28 | 72.3 µM | 15.9 | > 100 µM | 40.8 | > 100 | 37.4 | > 100 µM |
| C[C@]12CC[C@@H]3c4ccc(OC(=O)N(CCCl)CCCl)cc4CC[C@H]3[C@@H]1CC[C@@H]2O | 4.83 | 40.7 | 2.59 | 8.29 | 2.44 |  | 2.53 | 8.63 | 4.7 | 33.4 µM and 3.65 µM | 1.69 | 4.27 µM | 0.731 |  | 1.78 | 8.15 µM | 1.41 | 16.2 | 1.58 |  |
| C=C(C)C(O)CCC1(C)C=Cc2c(c(C)cc3c2[nH]c2ccccc23)O1 (stereo not drawn) |  | 21.5 |  | 11.4 | 2.47 | 9.46 µM and 6.11 µM |  | 25.1 | 8.33 | 25 µM and 22 µM | 3.64 | 9.45 µM and 13.2 µM | 4.24 | 25 µM and 19.9 µM | 3.47 | 18.7 µM and 13.8 µM |  | 11 | 5.08 | 10.2 µM and 18.7 µM |
| O=C(CCCCCCNC(=O)c1cnc(N(c2ccccc2)c2ccccc2)nc1)NO | 0.907 | 5.83 | 2.99 | 14.7 | 3.46 | 28.1 µM | 3.82 | > 100 | 3.2 | 16.6 µM | 2.92 | 52.3 µM | 3.53 | > 62.3 µM | 2.13 | > 100 µM | 1.21 | 4.42 | 1.94 | > 29.7 µM |
| CC(=O)NC1C(OC[C@@H](CC(=O)N[C@@H](CC(=O)O)CC(=O)N[C@H](CC(=O)N[C@@H](CCCN)CC(=O)N[C@@H](CCCN)CC(=O)N[C@H](CC(N)=O)C(C)C)C(C)C)NC(=O)C[C@@H](N)C(C)C)OC(CO)C(O)C1O (stereo partly drawn) | > 100 | > 100 | > 100 | > 100 | > 100 | > 100 µM | > 100 | > 100 | > 100 | > 100 µM | > 100 | > 100 µM | > 100 | > 100 µM | > 100 | > 100 µM | > 100 | > 100 | > 100 | > 100 µM |
| C/C(=N\NC(=S)N1CC2CCC(CC2)C1)c1nccs1 |  | 14.6 |  | 19.9 |  | 5.66 µM |  | 12.5 |  | 15 µM |  | 3.57 µM |  | 0.0184 µM |  | 20.7 µM |  | 0.893 |  | 18.9 µM |
| CCCCCCCCNc1cc2c3c(c1)CCCN3CCC2 | 1.34 | 21 | 2.56 | 11.7 | 4.04 | 18.3 µM | 2.61 | 12.8 | 1.77 | 8.3 µM | 2.81 | 17 µM | 0.33 | 1.85 µM | 1.09 | > 100 µM | 2.16 | 16.4 | 2.14 | 13.3 µM |
| COc1ncnc2c(-c3ccccc3)cn(COCc3ccccc3)c12 | 3.04 | 9.84 | 4.04 | > 100 | 5.78 | 87.6 µM | 10.4 | > 100 | 7.16 | > 100 µM | 11.8 | > 100 µM | 3.22 | 18.1 µM | 2.7 | 7.12 µM | 2.1 | 8.81 | 4.6 | > 100 µM |
| COc1ccc(/C=C/C(=O)c2cc(OC)c(OC)c(OC)c2)cc1OCc1cn(Cc2ccc(F)cc2)nn1 | 3.05 | > 100 | 2.84 | > 100 | 2.14 | 6.18 µM | 2.59 | 6.64 | 7.4 | > 100 µM | 2.49 | 7.83 µM | 3.31 | 9.07 µM | 3.97 | 68.5 µM | 3.16 | 14.3 | 3.16 | > 100 µM |
| C=CCN=c1sc2c(n1NC(=O)c1cc3ccc1CCc1ccc(cc1)CC3)C(=O)c1ccccc1C2=O | 2.02 | 7.29 | 1.27 | 6.68 | 1.96 | 4.85 µM | 1.85 | 3.45 | 1.13 | 3.21 µM | 1.69 | 3.12 µM | 0.395 | 3.26 µM | 1.22 | 5.76 µM | 1.63 | 3.91 | 1.63 | 3.45 µM |
